# Source: patent US8889704B2 (Array BioPharma Inc., priority 2011, dated 2014)
# Counter-ions that a name gives are not always drawn.
# How the values were obtained:
# Type in all cases: biochemical
# [1] = biological target: recombinant rat PIM-3 (Rattus norvegicus, UniProt O70444); experiment: PIM-3 Assay (as Example A); conditions: averaged IC50; 30 μM ATP, 3.75 μM PIM2tide, 0.5 nM PIM-3
# How it was run: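 Recombinant rat PIM-3 (0.5 nM) with 3.75 μM PIM2tide and 30 μM [γ-33P]ATP in MOPS pH 7.4 buffer, 60 min at 22 °C; labelled peptide captured on phosphocellulose filters and counted by scintillation. 10-point curve (top dose 10 μM, 2% DMSO); IC50 from 4-parameter fit of percent of control.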
# [2] = biological target: PIM-1 (Homo sapiens, UniProt P11309); experiment: Enzyme PIM-1 Assay ([33P]ATP incorporation into PIM2tide, filter plate); conditions: averaged IC50; 35 μM ATP, 7.5 μM PIM2tide, 0.25 nM PIM-1, 60 min at 22° C.
# How it was run: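 Radiometric assay: 0.25 nM PIM-1 phosphorylates 7.5 μM PIM2tide with 35 μM [γ-33P]ATP in 20 mM MOPS pH 7.4, 10 mM MgCl2, 1 mM DTT, 0.005% Tween-20, 60 min at 22 °C. Product captured on P81 filters, scintillation counted; 10-point 3-fold curve from 10 μM top, 2% DMSO, IC50 by 4-parameter logistic fit of POC.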
# [3] = biological target: T1, GST-tagged recombinant full-length human Pim-2 (Homo sapiens, UniProt Q9P1W9); experiment: PIM-2 Assay (as Example A); conditions: averaged IC50; 4 μM ATP, 1.0 μM PIM2tide, 1.5 nM Pim-2
# T1 construct: GST-tagged recombinant full-length human Pim-2; GST
# How it was run: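 Radiometric filter-binding assay: GST-tagged full-length human Pim-2 (1.5 nM) phosphorylates 1.0 μM PIM2tide with 4 μM [γ-33P]ATP for 60 min at 22 °C in pH 7.4 MOPS buffer, 2% DMSO. 10-point 3-fold dilutions from 10 μM top dose; IC50 from 4-parameter fit of percent of control.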
# Sequence of PIM-1 (P11309 whole entry, species assumed): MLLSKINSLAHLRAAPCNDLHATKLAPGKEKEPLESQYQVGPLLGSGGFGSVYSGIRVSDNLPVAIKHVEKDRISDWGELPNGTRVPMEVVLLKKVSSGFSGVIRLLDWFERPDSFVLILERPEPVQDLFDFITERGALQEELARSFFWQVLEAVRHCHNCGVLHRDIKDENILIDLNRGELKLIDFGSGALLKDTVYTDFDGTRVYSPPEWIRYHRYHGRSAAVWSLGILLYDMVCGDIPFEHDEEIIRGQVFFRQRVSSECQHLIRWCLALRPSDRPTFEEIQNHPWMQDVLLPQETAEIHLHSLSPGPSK
# T1 sequence (Q9P1W9 whole entry): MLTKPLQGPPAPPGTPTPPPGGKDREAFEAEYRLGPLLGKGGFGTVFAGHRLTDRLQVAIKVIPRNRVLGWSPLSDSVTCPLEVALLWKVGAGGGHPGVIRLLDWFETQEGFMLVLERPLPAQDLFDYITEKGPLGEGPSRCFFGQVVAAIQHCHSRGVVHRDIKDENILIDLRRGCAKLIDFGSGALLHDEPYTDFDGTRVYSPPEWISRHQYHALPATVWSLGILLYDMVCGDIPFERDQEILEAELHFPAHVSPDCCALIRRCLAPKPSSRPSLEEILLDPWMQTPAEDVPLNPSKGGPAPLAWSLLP
SMILES,IC50 [1] [nM],IC50 [2] [nM],IC50 [3] [nM]
"COCCOc1cc2nc(-c3nnc4ccc([C@H](N5CC[C@](C)(N)C5)C(F)(F)F)cn34)ccc2cc1F [Example 298, (S)-3-methyl-1-((S)-2,2,2-trifluoro-1-(3-(6-fluoro-7-(2-methoxyethoxy)quinolin-2-yl)-[1,2,4]triazolo[4,3-a]pyridin-6-yl)ethyl)pyrrolidin-3-amine dihydrochloride]",0.4,0.27,59
"Cc1c(OC(C)C)ccc2ccc(-c3nnc4ccc([C@@H](N5CC[C@H](N)C5)C(F)(F)F)cn34)nc12 [Example 116, (S)-1-((R)-2,2,2-trifluoro-1-(3-(7-isopropoxy-8-methylquinolin-2-yl)-[1,2,4]triazolo[4,3-a]pyridin-6-yl)ethyl)pyrrolidin-3-amine hydrochloride]",1.8,0.24,76
"CCOc1cc2nc(-c3nnc4ccc([C@@H](N5CC[C@](C)(N)C5)C(F)(F)F)cn34)ccc2cc1F [Example 247, (S)-1-((R)-1-(3-(7-ethoxy-6-fluoroquinolin-2-yl)-[1,2,4]triazolo[4,3-a]pyridin-6-yl)-2,2,2-trifluoroethyl)-3-methylpyrrolidin-3-amine dihydrochloride]",1.2,0.41,392
"CCNC(=O)c1ccc2ccc(-c3nnc4ccc([C@@H](N5CC[C@H](N)C5)C(F)(F)F)cn34)nc2c1 [Example 38, 2-(6-((R)-1-((S)-3-aminopyrrolidin-1-yl)-2,2,2-trifluoroethyl)-[1,2,4]triazolo[4,3-a]pyridin-3-yl)-N-ethylquinoline-7-carboxamide dihydrochloride]",0.5,0.23,56
"CC(C)NC(=O)c1ccc2ccc(-c3nnc4ccc(C(N5CC[C@H](N)C5)C(F)(F)F)cn34)nc2c1 (stereo partly drawn) [Example 30, 2-(6-(1-((S)-3-aminopyrrolidin-1-yl)-2,2,2-trifluoroethyl)-[1,2,4]triazolo[4,3-a]pyridin-3-yl)-N-isopropylquinoline-7-carboxamide dihydrochloride]",0.9,0.32,63
"Cn1cc(-c2ccc3ccc(-c4nnc5ccc([C@H](N6CC[C@](C)(N)C6)C(F)(F)F)cn45)nc3c2)cn1 [Example 222, (S)-3-methyl-1-((S)-2,2,2-trifluoro-1-(3-(7-(1-methyl-1H-pyrazol-4-yl)quinolin-2-yl)-[1,2,4]triazolo[4,3-a]pyridin-6-yl)ethyl)pyrrolidin-3-amine dihydrochloride]",0.2,0.22,77
"COc1ccc2ccc(-c3nnc4ccc([C@@H](N5CC[C@H](N)C5)C(F)(F)F)cn34)nc2c1F [Example 167, (S)-1-((R)-2,2,2-trifluoro-1-(3-(8-fluoro-7-methoxyquinolin-2-yl)-[1,2,4]triazolo[4,3-a]pyridin-6-yl)ethyl)pyrrolidin-3-amine dihydrochloride]",12,2.04,> 100

# Second part, the molecule after the results:
IC50 [1] [nM],IC50 [2] [nM],IC50 [3] [nM],SMILES
4,0.52,645,"COc1cc2nc(-c3nnc4ccc([C@@H](N5C[C@@H](N)[C@H](F)C5)C(F)(F)F)cn34)ccc2cc1F [Example 211, (3R,4R)-4-fluoro-1-((R)-2,2,2-trifluoro-1-(3-(6-fluoro-7-methoxyquinolin-2-yl)-[1,2,4]triazolo[4,3-a]pyridin-6-yl)ethyl)pyrrolidin-3-amine dihydrochloride]"
6.2,0.95,> 100,"COc1cccc2ccc(-c3nnc4ccc([C@@H](N5CC[C@](N)(CF)C5)C(F)(F)F)cn34)nc12 (single isomer, unassigned) [Example 170]"
3.4,1.62,> 100,"CC(C)C(=O)Nc1ccc2ccc(-c3nnc4ccc([C@@H](N5CC[C@H](O)C5)C(F)(F)F)cn34)nc2c1 [Example 106, N-(2-(6-((R)-2,2,2-trifluoro-1-((S)-3-hydroxypyrrolidin-1-yl)ethyl)-[1,2,4]triazolo[4,3-a]pyridin-3-yl)quinolin-7-yl)isobutyramide]"
